Source: paper PMC5286421, “Interactions of retinoids with the ABC transporters P-glycoprotein and Breast Cancer Resistance Protein” (Scientific Reports, 2017)
Read-outs that look alike come from different tables or passages of the source.

What was measured:
Pgp [1] = target: T1, Pgp (Homo sapiens, UniProt P08183); settings: Sf9 membranes, Fig. 2c
Procedure: (§2) For ATPase activity measurements we used membrane samples derived from Sf9 (Spodoptera frugiperda) insect ovarian cells expressing human Pgp or ABCG2. cDNAs of the transporters were cloned into recombinant baculovirus transfer vectors, the Sf9 insect ovarian cells were cultured, and infected with the baculoviruses as described in ref. [52]. Sf9 cells overexpressing human Pgp and ABCG2 were harvested and cell membranes were isolated. The protein concentration of the membrane samples were determined by the Lowry method[53]. The ABCG2 expressing Sf9 membrane samples were loaded with cholesterol by cholesterol-methyl-beta-cyclodextrine complex in order to obtain high specific ATPase activity of the transporter[54]. Membrane samples were stored at −80 °C. The transporter expression of the membrane samples (5 μg membrane protein/slot) was routinely checked by immunoblot using the G-1 mAb (for Pgp) or BXP-21 mAb (for ABCG2) and a goat anti-mouse HRP-conjugated IgG secondary antibody. Both primary and secondary antibodies were from Santa Cruz Biotechnology Inc. (CA, USA) and applied at 1:5,000 dilution.
(§3) The vanadate-sensitive ATPase activity of Pgp and ABCG2 was determined by a colorimetric assay described in refs [32],[55]. Specific ATPase activity of the transporters was calculated from the amount of released inorganic phosphate. […] The absorbance of the samples was measured at 700 nm using a BioTek Synergy HT plate reader (BioTek Instruments, Winooski, USA).

[2] = target: P-gp (human Pgp), basal vanadate-sensitive ATPase activity (Homo sapiens, UniProt P08183); test: in vitro; settings: membranes of Sf9 insect cells expressing human Pgp, IC50 values, 10 min pre-incubation 37 °C, 3 mM ATP/Mg2+ 25 min, mean ± SEM, n=3
Sequence of P-gp (human Pgp), basal vanadate-sensitive ATPase activity (P08183 whole entry): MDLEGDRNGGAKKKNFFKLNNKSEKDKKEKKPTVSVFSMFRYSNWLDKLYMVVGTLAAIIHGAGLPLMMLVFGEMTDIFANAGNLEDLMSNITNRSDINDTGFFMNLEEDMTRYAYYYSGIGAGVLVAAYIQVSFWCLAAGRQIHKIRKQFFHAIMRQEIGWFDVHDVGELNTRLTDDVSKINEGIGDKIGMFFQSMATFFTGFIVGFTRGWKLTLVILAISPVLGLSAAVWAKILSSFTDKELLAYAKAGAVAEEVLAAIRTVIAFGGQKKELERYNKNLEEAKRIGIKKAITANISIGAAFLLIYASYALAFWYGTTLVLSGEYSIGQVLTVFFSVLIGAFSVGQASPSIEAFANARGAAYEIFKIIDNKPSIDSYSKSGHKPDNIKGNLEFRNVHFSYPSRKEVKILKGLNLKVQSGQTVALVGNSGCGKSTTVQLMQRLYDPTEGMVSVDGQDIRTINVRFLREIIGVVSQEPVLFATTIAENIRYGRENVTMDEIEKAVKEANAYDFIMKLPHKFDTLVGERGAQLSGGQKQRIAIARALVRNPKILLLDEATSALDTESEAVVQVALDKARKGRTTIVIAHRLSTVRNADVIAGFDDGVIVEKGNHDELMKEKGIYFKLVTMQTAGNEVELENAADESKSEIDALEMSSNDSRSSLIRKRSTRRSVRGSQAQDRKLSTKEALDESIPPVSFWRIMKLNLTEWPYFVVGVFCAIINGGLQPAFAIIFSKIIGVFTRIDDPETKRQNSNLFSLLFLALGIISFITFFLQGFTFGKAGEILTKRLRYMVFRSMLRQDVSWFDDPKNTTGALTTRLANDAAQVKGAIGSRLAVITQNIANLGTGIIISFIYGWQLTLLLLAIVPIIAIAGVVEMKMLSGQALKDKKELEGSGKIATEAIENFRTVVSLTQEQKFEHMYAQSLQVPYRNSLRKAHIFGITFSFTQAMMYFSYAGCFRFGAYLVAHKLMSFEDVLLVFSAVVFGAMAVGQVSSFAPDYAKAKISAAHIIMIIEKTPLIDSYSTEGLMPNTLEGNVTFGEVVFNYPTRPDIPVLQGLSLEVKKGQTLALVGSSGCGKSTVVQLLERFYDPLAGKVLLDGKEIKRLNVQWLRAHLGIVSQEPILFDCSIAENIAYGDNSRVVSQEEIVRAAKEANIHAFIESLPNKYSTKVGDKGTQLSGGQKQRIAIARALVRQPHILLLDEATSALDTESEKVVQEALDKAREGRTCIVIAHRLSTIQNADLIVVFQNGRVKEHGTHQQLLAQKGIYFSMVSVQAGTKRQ
Procedure: as §2, §3

ABCG2 [3] = target: T2, ABCG2 (Homo sapiens, UniProt Q9UNQ0); test: Mitoxantrone accumulation test (ABCG2 transport activity) in MDCK ABCG2 cells; settings: 20 min pre-treatment 37 °C, 5 μM mitoxantrone 40 min
T2 sequence (Q9UNQ0 1-655): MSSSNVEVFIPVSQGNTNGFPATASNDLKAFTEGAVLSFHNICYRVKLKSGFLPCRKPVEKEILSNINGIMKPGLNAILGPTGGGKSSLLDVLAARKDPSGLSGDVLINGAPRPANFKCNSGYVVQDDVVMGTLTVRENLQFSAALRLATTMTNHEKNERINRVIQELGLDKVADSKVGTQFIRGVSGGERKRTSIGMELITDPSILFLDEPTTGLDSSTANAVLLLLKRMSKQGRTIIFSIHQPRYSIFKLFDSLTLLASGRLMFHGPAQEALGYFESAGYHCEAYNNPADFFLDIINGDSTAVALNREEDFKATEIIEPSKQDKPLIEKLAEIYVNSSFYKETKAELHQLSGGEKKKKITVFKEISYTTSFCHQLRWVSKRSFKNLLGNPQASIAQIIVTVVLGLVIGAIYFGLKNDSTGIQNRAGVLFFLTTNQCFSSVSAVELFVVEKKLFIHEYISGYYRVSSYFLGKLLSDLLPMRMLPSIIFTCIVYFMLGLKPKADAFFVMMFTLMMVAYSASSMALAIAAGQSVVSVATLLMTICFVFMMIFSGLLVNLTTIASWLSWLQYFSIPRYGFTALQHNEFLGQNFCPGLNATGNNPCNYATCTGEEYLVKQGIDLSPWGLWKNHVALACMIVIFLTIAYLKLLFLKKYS
Procedure: (§4) Calcein-AM was applied to measure the transport activity of Pgp[51], while ABCG2 mediated transport was measured in mitoxantrone accumulation tests[18]. Cells were harvested and washed three times in PBS containing 7 mM glucose (gl-PBS). […] Dead cells were excluded from the analysis on the basis of propidium iodide (PI) staining.
(§5) Flow cytometric analysis was carried out on a Becton Dickinson FACSAria III Cell Sorter (Becton Dickinson, Mountain View, CA, USA). Calcein was excited by the 488 nm line of a solid state laser and the emitted light was detected using a 502 nm dichroic mirror and a 530/30 nm band-pass filter. […] AlexaFluor647 and mitoxantrone signals were detected with a 633 nm excitation laser and a 660/20 nm band-pass filter.

[4] = system: NIH 3T3 / NIH 3T3 MDR1 and MDCK / MDCK ABCG2 cells; test: DPH steady-state fluorescence anisotropy (membrane fluidity); settings: retinoids 100 μM; for Effect on DPH fluorescence anisotropy: cyclosporin 10 μM, Ko143 2 μM, 10 min 37 °C, all tested cell lines
[5] = ref PubChem Compound Database (CID); cited from earlier work
Pgp [6] = target: T1, Pgp; test: Calcein accumulation test (Pgp transport activity) in NIH 3T3 MDR1 cells; settings: 20 min pre-treatment 37 °C, 500 nM calcein-AM 20 min
Procedure: as §4, §5

Pgp [7] = target: T1, Pgp; test: biochemical; settings: IC50 values, Pgp stimulated (verapamil-stimulated) ATPase activity, 40 μM verapamil; Sf9 membranes; mean ± SEM, n=3
Procedure: as §2, §3

[8] = system: Pgp-positive and Pgp-negative NIH 3T3 cells; test: AlamarBlue in vitro cytotoxicity assay; assay type: cell-based, mouse; settings: 72 h, NIH 3T3 and NIH 3T3 MDR1, Supplementary Fig. S3
Procedure: Supplementary Fig. S3: Cytotoxic effect of retinyl-acetate on Pgp-positive and Pgp-negative NIH 3T3 cells. The AlamarBlue (Serotec, UK) based in vitro cytotoxicity assay was performed as previously described 1. Cells were seeded in 96-well plates at a cell density of 5 × 10^3 cells/well. 24 hours later retinyl-acetate was added at different concentrations and the plates were further incubated for 72 h at 37 °C. The cell viability was determined measuring the 530/590 nm fluorescence intensity of the dye in an automated microplate reader (BioTec Synergy HT, US). The AlamarBlue fluorescence intensity of the samples was normalized to the fluorescence of the retinyl-acetate untreated samples, and plotted as a function of retinyl-acetate concentration. The data points are means of eight parallel samples (±SD).
(§1) (1 picture or pasted object on this page, not shown here)

ABCG2 [9] = target: T2, ABCG2; test: Vanadate-sensitive ATPase activity of ABCG2 in Sf9 membrane preparations; assay type: biochemical; settings: cholesterol-loaded Sf9 membranes, mean ± SEM, n=3
Procedure: For ATPase activity measurements we used membrane samples derived from Sf9 (Spodoptera frugiperda) insect ovarian cells expressing human Pgp or ABCG2. cDNAs of the transporters were cloned into recombinant baculovirus transfer vectors, the Sf9 insect ovarian cells were cultured, and infected with the baculoviruses as described in ref. [52]. Sf9 cells overexpressing human Pgp and ABCG2 were harvested and cell membranes were isolated. The protein concentration of the membrane samples were determined by the Lowry method. The ABCG2 expressing Sf9 membrane samples were loaded with cholesterol by cholesterol-methyl-beta-cyclodextrine complex in order to obtain high specific ATPase activity of the transporter. Membrane samples were stored at −80 °C. The transporter expression of the membrane samples (5 μg membrane protein/slot) was routinely checked by immunoblot using the G-1 mAb (for Pgp) or BXP-21 mAb (for ABCG2) and a goat anti-mouse HRP-conjugated IgG secondary antibody. Both primary and secondary antibodies were from Santa Cruz Biotechnology Inc. (CA, USA) and applied at 1:5,000 dilution.
The vanadate-sensitive ATPase activity of Pgp and ABCG2 was determined by a colorimetric assay described in refs [32],[55]. Specific ATPase activity of the transporters was calculated from the amount of released inorganic phosphate. […]. The absorbance of the samples was measured at 700 nm using a BioTek Synergy HT plate reader (BioTek Instruments, Winooski, USA).
The half-inhibitory doses (IC50) of retinoids were determined by fitting the dose-response relationships with a four parameter sigmoidal curve, where Amax and Amin are the ATPase activities measured at zero and at infinitely high inhibitor concentrations, respectively, n is the Hill coefficient and x is the concentration of the inhibitor:
Upon studying the kinetics of inhibition of the substrate-stimulated ATPase activity by retinoids data points were fitted with a modified form of the Michaelis-Menten equation[56] which includes the Hill coefficient, n: […]
v0 is the basal ATPase activity measured in the absence of the stimulatory substrate, while vmax is the maximal extent of ATPase stimulation and KM is the Michaelis constant (i.e. the substrate concentration at which the reaction rate is half of vmax).

[10] = system: Pgp- and ABCG2-negative NIH 3T3 and MDCK cells; test: Calcein and mitoxantrone accumulation in transporter negative cells; assay type: cell-based, mouse / canine; settings: NIH 3T3 (calcein) and MDCK (mitoxantrone), Supplementary Fig. S1, 50 µM
Procedure: Supplementary Fig. S1: Effect of retinoid derivatives on the calcein (a) and
mitoxantrone (c) accumulation and viability (b, d) of Pgp- and ABCG2-negative NIH
3T3 and MDCK cells. Cells were pre-treated with retinoids added at 50 µM concentration
Cell viability was determined on the basis of propidium iodide exclusion.
as §1

[11] = system: NIH 3T3 / NIH 3T3 MDR1 and MDCK / MDCK ABCG2 cells; test: TMA-DPH steady-state fluorescence anisotropy (membrane fluidity); settings: retinoids 100 μM, cyclosporin 10 μM, Ko143 2 μM; 10 min 37 °C

T1 sequence (P08183 whole entry): as the sequence (P08183 whole entry) above

Compound	Effect on the basal ATPase activity of Pgp (Pgp [1])	IC50 at 25 min [2] [µM]	Effect on mitoxantrone accumulation of ABCG2 expressing cells (ABCG2 transport activity) (ABCG2 [3])	Effect on DPH fluorescence anisotropy [4]	Effect on DPH anisotropy in transporter expressing compared to non-expressing cells ([4]; Pgp+ vs Pgp− NIH 3T3, ABCG2 expressing vs non-expressing MDCK)	LogP (octanol-water partition coefficient, LogPow) [5]	Effect on calcein accumulation of Pgp expressing cells (Pgp transport activity) (Pgp [6])	IC50 (Pgp [7]) [µM]	Cytotoxicity profile in Pgp+ versus Pgp− cells [8]	IC50 (ABCG2 [9]; 10 μM quercetin, read-out: IC50 values, ABCG2 stimulated (quercetin-stimulated) ATPase activity) [µM]	IC50 (ABCG2 [9]; read-out: IC50 values, ABCG2 basal ATPase activity) [µM]	Effect on substrate accumulation of transporter negative cells [10]	Effect on TMA-DPH fluorescence anisotropy [11]
CC(=O)OC/C=C(C)/C=C/C=C(C)/C=C/C1=C(C)CCCC1(C)C [Retinyl-acetate]	slightly stimulated	36.8 ± 4	increased the cellular accumulation of the fluorescent transporter substrates in a concentration dependent manner	increased the DPH fluorescence anisotropy values significantly	significantly lower effect	6.3	increased the cellular accumulation of the fluorescent transporter substrates in a concentration dependent manner	19.1 ± 5	identical cytotoxicity profile	70.4 ± 7.3	18.9 ± 4	did not have any effect	
COc1ccc2c3c([nH]c2c1)[C@H](CC(C)C)N1C(=O)[C@H](CCC(=O)OC(C)(C)C)NC(=O)[C@@H]1C3 [Ko143]				do not affect the overall membrane fluidity		3.5							do not affect the overall membrane fluidity
